The text below walks through data of PubChem BioAssay AID977628 (Broad Institute, 2014).

In this experiment the test system is E. coli WT GFP strain growth, fluorescence, 24 h. The experiment in a line: E. coli growth inhibition, wild-type GFP versus h24 humanized RFP strain, dose response, h24 mutant RFP vs wild-type GFP, cherry-pick (AID 977628).

Records with an inconclusive call do not appear. The source made the active and inactive calls.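 The calls were made as follows: active = compound lowering the normal-ribosome reporter at least twice as much as the humanized-ribosome reporter, growth loss under a set limit; inconclusive = no clear call, values can overlap the other calls; inactive = the rest.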 A value given as a limit tells only on which side of the number the result lay.

What is called AC50 is the concentration giving half of the maximal activity seen. For `N#Cc1ccc(C(=O)Nc2ccn(-c3ccccc3)n2)cc1`, the AC50 was > 100 µM (inactive).

For the molecule `O=C(CN1c2ccccc2S(=O)(=O)c2ccccc21)NCc1ccc(F)cc1`, the AC50 is > 100 µM (inactive).

In the case of `COc1cccc(NC2=Nc3cccc4cccc2c34)c1`, the AC50 is > 100 µM (inactive).

For the molecule `CCC(=O)Nc1nc2ccc(NC(=O)c3cc(OC)c(OC)c(OC)c3)cc2s1`, the AC50 is > 100 µM (inactive).

On to `N#Cc1ccc(OCC(=O)N2CCN(S(=O)(=O)c3ccc(Cl)s3)CC2)cc1`, for which the AC50 was > 100 µM (inactive).

In the case of `Cc1cccc(OCCC(=O)N(C)CC(=O)Nc2cccc3ccccc23)c1`, the AC50 was > 100 µM (inactive).

With `Cc1cc(C(=O)Nc2cccc3c2O[C@H](CN(C)S(=O)(=O)c2ccc(Cl)cc2)[C@H](C)CN([C@H](C)CO)C3=O)n(C)n1`, the AC50 was > 100 µM (inactive).

Consider `COCc1nnc(NC(=O)c2ccc(S(=O)(=O)N3CCCC3)cc2)o1`, for which the AC50 was > 100 µM (inactive).

On to `CCc1nc2ccccc2n1CCc1ccccc1`, for which the AC50 was > 100 µM (inactive).

`COc1cc2[nH]c(=S)nc(NCCc3ccc(C)cc3)c2cc1OC`: the AC50 is > 100 µM (inactive).

In the case of `CN(c1ccccc1)S(=O)(=O)c1cccc(C(=O)OCC(=O)NCc2ccco2)c1`, the AC50 is > 100 µM (inactive).

Turning to `COc1ccc(N2C(=O)C3C(C2=O)C3(c2ccccc2)c2ccccc2)cc1` (centres undefined), the AC50 was > 100 µM (inactive).

Take `C=CCn1c(C)cc(C(=O)COC(=O)CNC(=O)c2ccccc2)c1C`: the AC50 is > 100 µM (inactive).

Turning to `Cc1cccc(S(=O)(=O)NC(=O)C2(C)CCN2C(=O)c2ccccc2CCc2ccccc2)c1` (centres undefined), the AC50 was > 100 µM (inactive).

Regarding `O=C(c1ccccc1)C1CN(Cc2ccccc2)CCC1(O)c1ccccc1` (centres undefined), the AC50 is > 100 µM (inactive).

In the case of `Cc1nn(S(=O)(=O)c2ccc(Cl)cc2)c(C)c1Sc1ccc([N+](=O)[O-])cc1`, the AC50 is > 100 µM (inactive).

Take `COCCNc1cc(-c2ccccc2)nc2cc(-c3cccc(F)c3)nn12`: the AC50 was > 100 µM (inactive).

Consider `COc1ccc(OCC2c3cc(OC)c(OC)cc3CCN2C(=O)C(C)C)cc1` (centres undefined), for which the AC50 was > 100 µM (inactive).

As to `O=C(c1ccc(Cl)cc1)N1CCN(c2cccc3[nH]ccc23)CC1`, the AC50 is > 100 µM (inactive).

In the case of `COc1ccc(NS(=O)(=O)c2ccc(Cl)c(NC(=O)c3ccccc3F)c2)cc1`, the AC50 is > 100 µM (inactive).

Turning to `S=c1[nH]nc(-c2ccc3ccccc3n2)n1-c1ccc2c(c1)OCCO2`, the AC50 is > 100 µM (inactive).

`O=C(c1cc(COc2c(F)cccc2F)on1)N1C[C@H]2CC[C@H]1C2`: the AC50 is > 100 µM (inactive).

For the molecule `CSc1ccc(CN(C)CC(=O)NC(C)c2ccccc2)cc1` (centres undefined), the AC50 is > 100 µM (inactive).

As to `Nc1nn(-c2ccccc2)c2ccc([N+](=O)[O-])cc12`, the AC50 is > 100 µM (inactive).

For `O=C(Nc1cccc(-c2cn3ccccc3n2)c1)c1ccccc1`, the AC50 is > 100 µM (inactive).

Turning to `O=C(O)c1ccccc1Nc1cc(Cl)c2nonc2c1[N+](=O)[O-]`, the AC50 is > 100 µM (inactive).

Consider `O=C(O)CCN(Cc1ccccc1)S(=O)(=O)c1ccccc1Cl`, for which the AC50 was > 100 µM (inactive).

Regarding `O=C(CN1CCC(n2nnc3cc(F)ccc32)CC1)N1CCc2ccccc2C1`, the AC50 was > 100 µM (inactive).

Regarding `COc1ccc2[nH]c3c(=O)n(CCCCC(=O)NCCC(C)C)c(=S)[nH]c3c2c1`, the AC50 was > 100 µM (inactive). Also, under “measured here: WT GFP, test 1”, the AC50 was more than 100 µM.

`Cc1ccccc1OCC(O)Cn1c(NCc2ccco2)nc2c1c(=O)n(C)c(=O)n2C` (centres undefined): the AC50 is > 100 µM (inactive).

`Cc1cc(C)c(S(=O)(=O)NCCOc2ccccc2)c(C)c1-n1cnnn1`: the AC50 is > 100 µM (inactive).

With `O=c1[nH]c(C2CCCN(S(=O)(=O)c3ccccc3Cl)C2)nc2c1nnn2Cc1ccc2c(c1)OCCO2` (centres undefined), the AC50 was > 100 µM (inactive).

As to `Cc1cc(C(=O)NCCC2=CCCCC2)ccc1[N+](=O)[O-]`, the AC50 is > 100 µM (inactive).

With `COc1ccc(-c2cc(C(=O)N(C)CCc3ccc(OC)c(OC)c3)c3ccccc3n2)cc1`, the AC50 is > 100 µM (inactive).

As for `CCN(CC)S(=O)(=O)c1cccc(NC(=O)CNc2cccc(S(=O)(=O)N3CCCC3)c2)c1`, the AC50 was > 100 µM (inactive).

Consider `CCc1ccc(OCC(=O)NCc2ccco2)c(Br)c1`, for which the AC50 was > 100 µM (inactive).

On to `O=C(NCc1cccnc1)c1ccc(COc2ccc3c(c2)CCC3)o1`, for which the AC50 is > 100 µM (inactive).

For `CC1CCCN(C(=O)C(C)Nc2cc(Cl)ccc2N2CCOCC2)C1` (centres undefined), the AC50 was > 100 µM (inactive).

Turning to `COC(=O)c1ccc(CN2CCCC(CO)(Cc3ccccc3F)C2)cc1` (centres undefined), the AC50 is > 100 µM (inactive).

Turning to `CC(=O)OC1N=C(c2ccccc2Cl)c2cc(Br)ccc2NC1=O` (centres undefined), the AC50 is > 100 µM (inactive).

`CC(=O)Oc1ccc(N(C(C)=O)S(=O)(=O)c2ccc(C)cc2)c2ccccc12`: the AC50 was > 100 µM (inactive).

On to `Cc1ccc2nc(SCC(=O)c3ccc(O)cc3O)[nH]c2c1`, for which the AC50 is > 100 µM (inactive).

With `CCOC(=O)c1cc(C)nc(N2CCCCC2)c1C#N`, the AC50 is > 100 µM (inactive).

On to `O=C(c1cc(COc2ccc(F)cc2F)on1)N1CCCC(c2ccccc2)C1` (centres undefined), for which the AC50 was > 100 µM (inactive).

As for `CSC1=NCCN1C(=O)Cc1ccc(-c2ccccc2)cc1`, the AC50 is > 100 µM (inactive).

On to `CSc1ccccc1NC(=O)CN(c1cccc(C)c1)S(C)(=O)=O`, for which the AC50 was > 100 µM (inactive).

Turning to `O=C(CCC(=O)N1CCN(c2ccc(F)cc2)CC1)N1CCN(c2ccc(F)cc2)CC1`, the AC50 is > 100 µM (inactive).

On to `CCCCCCCNC(=O)c1ccc(N2CCC3(CC2)OCCO3)c([N+](=O)[O-])c1`, for which the AC50 is > 100 µM (inactive).

As for `O=C(Nc1ccc(S(=O)(=O)N2CCCC2)cc1)c1ccc(OCC2CCCO2)cc1` (centres undefined), the AC50 was > 100 µM (inactive).

Turning to `Cc1ccc(C(=O)Nc2cccc(N(C)S(C)(=O)=O)c2)cc1S(=O)(=O)Nc1ccccc1`, the AC50 was > 100 µM (inactive).

In the case of `CCn1nc(C)cc1C(=O)N1CCCC(C(=O)c2ccc3ccccc3c2)C1` (centres undefined), the AC50 is > 100 µM (inactive).

As for `CCOC(=O)C1CCCN(C(=O)c2csc(-c3ccc4c(c3)CCO4)n2)C1` (centres undefined), the AC50 was > 100 µM (inactive).

For the molecule `O=C(Nc1ccc2nc(-c3ccccc3)[nH]c2c1)c1cccs1`, the AC50 is > 100 µM (inactive).

For the molecule `Cc1cc2nc(SCC(=O)O)nc(C)c2cc1C`, the AC50 is > 100 µM (inactive).

Turning to `CCCc1c(C(=O)Nc2ccc(OC)cc2)cnn1-c1ccccc1`, the AC50 was > 100 µM (inactive).

Regarding `Cc1ccc(C(=O)C2CCN(CC(=O)Nc3nc(C)cs3)CC2)cc1`, the AC50 was > 100 µM (inactive).

With `COc1ccccc1-n1c(Cc2ccccc2)nc2ccccc2c1=O`, the AC50 is > 100 µM (inactive).

As for `CCOc1ccccc1N1CCN(Cc2cn[nH]c2-c2ccc(F)cc2)CC1`, the AC50 was > 100 µM (inactive).

On to `O=C(Nc1cc(F)ccc1F)N1CCCCN2[C@@H](CO)[C@H](c3ccc(-c4ccncc4)cc3)[C@@H]2C1`, for which the AC50 is > 100 µM (inactive).

`COc1ccc2[nH]cc(CCNC(=O)C3CC(=O)N(c4ccc(Cl)cc4)C3)c2c1` (centres undefined): the AC50 is > 100 µM (inactive).

With `O=S(=O)(c1ccc(Cl)cc1)N1CCN=C1SCc1cccc(Cl)c1`, the AC50 was > 100 µM (inactive).

In the case of `Cc1ccccc1S(=O)(=O)c1cc2ccccc2nc1N`, the AC50 was > 100 µM (inactive).

Turning to `COc1cccc(Nc2nc(N)c([N+](=O)[O-])c(NCc3ccccc3)n2)c1`, the AC50 was > 100 µM (inactive).

As for `CCC(=O)c1ccc(OCC(=O)Nc2nc(C)cs2)cc1`, the AC50 is > 100 µM (inactive).

For the molecule `COc1ccc(CNc2ccc([N+](=O)[O-])cc2C)cc1`, the AC50 was > 100 µM (inactive).

As for `O=C(NCc1ccccc1Cl)[C@H]1CCCN1C(=O)[C@H]1CCCN1C(=O)c1cccc2ccccc12`, the AC50 is > 100 µM (inactive).

With `CCCCn1c(NS(=O)(=O)c2ccc(C)cc2)c(C(=O)OCC)c2nc3ccccc3nc21`, the AC50 is > 100 µM (inactive).

`COc1ccccc1-c1ccc(SCc2ccc(F)cc2)nn1`: the AC50 is > 100 µM (inactive).

For `O=S1(=O)N[C@H](Cc2ccccc2)COc2cccc(N3CCC[C@H]3CO)c21`, the AC50 is > 100 µM (inactive).

For `O=C1c2ccccc2C(=O)N1CCc1c[nH]c2ccccc12`, the AC50 is > 100 µM (inactive).

Take `CC1=Nc2cc(C(=O)NCC3CCCO3)ccc2Sc2ccc(Br)cc21` (centres undefined): the AC50 is > 100 µM (inactive).

For the molecule `COC(=O)c1sccc1NC(=O)Cn1nnc(-c2ccccc2C)n1`, the AC50 is > 100 µM (inactive).

Regarding `NC(=O)c1nsc(C(=O)N(c2ccccc2F)C(C(=O)NCc2ccc(F)cc2)c2ccc(O)cc2)c1N` (centres undefined), the AC50 was > 100 µM (inactive).

Regarding `CC(=O)c1cccc(NC(=O)COC(=O)CCC(=O)c2ccc(F)cc2)c1`, the AC50 is > 100 µM (inactive).

Regarding `CN(C)CCN(C(=O)c1ccc2c(c1)CCCC2)c1nc2c(F)cccc2s1`, the AC50 was > 100 µM (inactive).

Take `COc1ccc(C(=O)c2c(C)oc3ccc(O)cc23)cc1`: the AC50 is > 100 µM (inactive).

As for `CC(=O)N1CCN(c2nc(-c3cccs3)nc3ccccc23)CC1`, the AC50 was > 100 µM (inactive).

For the molecule `Fc1cccc(Cc2c(-c3ccco3)nc3c4ccccc4ccn23)c1`, the AC50 was > 100 µM (inactive).

On to `COc1ccc(-c2csc3ncn(-c4ccc(C)cc4)c(=O)c23)cc1OC`, for which the AC50 is > 100 µM (inactive).

With `CC(=O)c1ccc(N2CCN(C(=O)C3CCN(S(=O)(=O)c4ccc5c(c4)CC(C)N5C(C)=O)CC3)CC2)cc1` (centres undefined), the AC50 was > 100 µM (inactive).

For the molecule `COCCCn1c(C)cc(C(=O)COC(=O)CCc2nc3ccccc3c(=O)[nH]2)c1C`, the AC50 was > 100 µM (inactive).

Regarding `CC(=O)N1CCOc2ccc(S(=O)(=O)N(C)c3ccc(C)cc3)cc21`, the AC50 was > 100 µM (inactive).

As for `Cc1cccc(NC(=O)CC23CC4CC(C2)CC(n2nnc(C)n2)(C4)C3)c1`, the AC50 is > 100 µM (inactive).
